In US11643428B2, “Therapeutic drug for neurodegenerative disease and application thereof” (SHANGHAI PHARMACEUTICALS HOLDING CO., LTD., priority 2018, dated 2023):

Tests used:
Human neural stem cells = assay: Mitochondrial membrane potential, JC-1 staining; assay type: cell-based; details: Aβ-treated cells
Method: Mitochondrial membrane potential is the main parameter of mitochondrial function, and mitochondrial dysfunction is a prominent feature of AD brain. In this example, the inventors have explored whether PL201 has the effect of improving mitochondrial function by detecting the level of cell mitochondrial membrane potential of human neural stem cells.
Mitochondria was stained with JC-1 for 20 minutes and washed with washing buffer, then immunofluorescence analysis was performed.

AD mice = assay: Aβ plaques in brain, thioflavin S staining; assay type: in vivo, mouse; details: 10 mg/kg intragastrically, 90 days, vs control group
Method: The inventors conducted PL201 administration experiments on AD mice (5-6 months aged AD mice were selected). Each mouse was intragastrically administrated 100 μl PL201, and the dosage was 10 mg/kg mouse body weight. Moreover, mice in the control group were administrated 100 μl water once daily for 90 days, and from Day 60 were intraperitoneally injected with 5-bromo-2′-deoxyuridine (BrdU) of 50 mg/kg mouse body weight once daily for 7 days. After 90 days of administration, the mice were perfused with PFA after anesthesia, and the whole brain was taken for further experiments.
The inventors performed frozen sectioning coronally with a thickness of 30 μm on the whole brain sample of AD mice after administration in example 2, and the slices were stained with thioflavin S and DAPI. The stained brain slices were then photographed with Olympus FV100i or Leica SP-8.

MPTP mice model [1] = assay: Striatal dopaminergic nerve fibers, TH western blot, MPTP model; assay type: in vivo, mouse; details: PL201+MPTP vs NS+MPTP group, Day 7 after MPTP modeling
Method: (§1) The mice were randomly divided into 4 groups: a group in which the mice was administrated with normal saline (NS), a MPTP model group in which the mice was intragastrical administrated with normal saline (NS+MPTP), a group in which the mice was intragastrical administrated with 50 mg of compound PL201 (PL201), and a MPTP model group in which the mice was intragastrical administrated with compound PL201 (PL201+MPTP).
(§2) 11 animals were set in the group in which the mice was administrated with normal saline (NS), 14 animals were set in the MPTP model group in which the mice was intragastrical administrated with normal saline (NS+MPTP), 4 animals were set in the group in which the mice was intragastrically administrated with 50 mg of compound PL201 (PL201), 15 animals were set in the MPTP model group in which the mice was intragastrically administrated with the compound PL201 (PL201+MPTP).
The administration started on the day of animal grouping: mice in the NS and the NS+MPTP group were administrated with normal saline, and mice in the other two groups were administrated with compound PL201 once a day for 7 consecutive days. […]
On Day 7 after MPTP modeling, animals in each group were anesthetized with 10% chloral hydrate. […] The fluorescence signal was detected by Odyssey near-infrared fluorescence scanner and made statistics.

MPTP mice model [2] = assay: TH immunohistochemistry of substantia nigra and striatum, MPTP model; assay type: in vivo, mouse; details: PL201+MPTP vs NS+MPTP group, Day 7 after MPTP modeling
Method: as §1, §2
The administration started on the day of animal grouping: mice in the NS and the NS+MPTP group were intragastrically administrated with normal saline, and mice in the other two groups were administrated with compound PL201 once a day for 7 consecutive days. From Day 7, mice in the NS and the PL201 group were intraperitoneally injected with 5 ml/kg normal saline, while mice in the NS+MPTP and the PL201+MPTP group were intraperitoneally injected with 25 mg/kg of MPTP once a day for a total of 5 days. […]

MPTP mice model [3] = assay: Pole-climbing test in MPTP model; assay type: in vivo, mouse; details: PL201+MPTP vs NS+MPTP group, 50 mg intragastrically once a day, day 3 of the experiment
Method: as §1, with “([…]),” for “(NS+MPTP),”
as §2, with “(PL201+MPTP). […]” for “(PL201+MPTP).”
On Day 3 of the experiment, the pole-climbing test of mice was carried out to evaluate the motor coordination ability of the mice. […] The time taken by the mice to turn from head upwards to head downwards completely was recorded as the time to turn around, and the time taken by the mice from moving downwards to all limbs reaching the bottom of the pole was recorded as the time to climb down. Time exceeded 30 seconds was recorded as 30 seconds. […]

## COc1cc(/C=C/C(=O)OC2OC(C)C(O)C(O)C2O)ccc1O [PL201, (α-L-rhamnopyranosyl) ferulic acid ester]
Human neural stem cells
  mitochondrial membrane potential: mitigated the deleterious effect of Aβ to a lesser extent
AD mice
  Aβ plaques in brain: less Aβ plaques
MPTP mice model [1]
  level of striatal dopaminergic nerve fibers (TH western blot): significantly increased
MPTP mice model [2]
  level of striatal dopaminergic nerve fibers (TH immunohistochemistry, mean optical density): significantly increased
  number of dopaminergic neurons in substantia nigra (TH positive cells): significantly increased
MPTP mice model [3]
  time to climb down: reduced
  time to turn around: reduced
